Measurements from patent US6930104B2, “Heterocyclic derivatives” (Takeda Chemical Industries, Ltd., priority 2001, dated 2005).

Tested on: sAPP secretion in PC12h cells
Experiment: Stimulatory effects on sAPP secretion (Western blotting of culture supernatant)
Assay type: cell-based, rat
Details: 1 nM concentration, 5 hours after addition, averaged from triplicate wells
Description: (§1) PC12h cells, a subspecies of rat-derived pheochromocytoma PC12 cells, were provided by the late Professor Hiroshi Hatanaka (Osaka University, Japan). Dulbecco's modified Eagle's medium (DMEM), phosphate buffered saline (PBS), HEPES (N-2-hydroxyethylpiperazine-N′-2-ethanesulfonic acid) buffer (pH 7.4), horse serum (HS) and a penicillin (5000 U/ml)/streptomycin (5 mg/ml) mixture were purchased from Gibco BRL. Fetal calf serum (FCS) was purchased from Bioscience PTY. Transferrin, insulin and progesterone were purchased from Sigma. The flasks used for culture were manufactured by Falcon, and the collagen-coated 96-well and 6-well multiwell plates used for assay were manufactured by Iwaki Glass Co., Ltd. (Japan). An LDH assay kit (LDH cytotoxic test Wako) and an anti-βAPP antibody 22C11 were purchased from Wako Pure Chemical Industries, Ltd. (Japan) and Chemicon, respectively. All other chemicals used were commercially available and of reagent grade.
PC12h cells were grown in DMEM culture medium supplemented with 10% FCS, 5% HS and penicillin/streptomycin, and then released by pipetting. The cells were seeded in collagen-coated 6-well plates at a confluency of 50% to 70% and allowed to stand for 1 day. On the following day, the wells were washed once with 10 mM HEPES/DMEM (1 ml) and then filled with 10 mM HEPES/DMEM culture medium (0.5 ml), followed by addition of Example No. 5 or 32. After 5 hours, the culture supernatant was collected from each well. Trichloroacetic acid (final concentration: 15%) was added to the culture supernatant to precipitate proteins, which were then concentrated. After addition of SDS-PAGE sample buffer (Daiichi Pure Chemicals Co., Ltd., Japan), each sample was boiled for 5 minutes, subjected to SDS-PAGE (10/20% gel, ATTO) and then transferred to a PVDF membrane (Bio-Rad Laboratories) at 2 mA/cm^2 for 60 minutes. […] An ECL Plus (Amersham) was used for detection and the signals were digitized by an LAS-1000 plus (Fuji film, Japan), followed by quantification with NIH-image software.

Row | Compound | increase in sAPP production compared to the control group
1 | COc1ccc(C(=O)N2c3ccccc3C(n3c4ccccc4c4ccccc43)CC2C)cc1OC (stereo not drawn) [Example 32, 2,4-cis-4-(9H-9-Carbazolyl)-1-(3,4-dimethoxybenzoyl)-2-methyl-1,2,3,4-tetrahydroquinoline] | approximately 2.2 fold

Same assay, conditions: 10 nM concentration, 5 hours after addition, averaged from triplicate wells

Row | Compound | increase in sAPP production compared to the control group
2 | COc1ccc(C(=O)N2c3ccccc3C(N3CCCc4ccccc43)CC2C)cc1OC (single isomer, unassigned; (-)) [Example 5, (−)-2,4-cis-1-(3,4-Dimethoxybenzoyl)-2-methyl-4-(1,2,3,4-tetrahydroquinolin-1-yl)-1,2,3,4-tetrahydroquinoline] | approximately 2.0 fold

Same assay, conditions: 5 hours after addition, Western blotting with anti-βAPP antibody 22C11

Row | Compound | sAPP level in the culture medium as compared to the control group
3 | COc1ccc(C(=O)N2c3ccccc3C(N3CCCc4ccccc43)CC2C)cc1OC (single isomer, unassigned; (-)) [Example 5, (−)-2,4-cis-1-(3,4-Dimethoxybenzoyl)-2-methyl-4-(1,2,3,4-tetrahydroquinolin-1-yl)-1,2,3,4-tetrahydroquinoline] | concentration-dependent increase

Tested on: PC12h cells
Experiment: Inhibitory effects on glutamate-induced cell death (LDH activity of living cells)
Assay type: cell-based, rat
Details: concentration of 1 μM, 72 hours
Description: as §1
PC12h cells were seeded in 96-well plates at a density of 2×10^4 cells/cm^2. […] After 72 hours, living cells were counted. Cell counts were determined as follows: after removal of the culture medium, living cells were solubilized in 0.1% Tween 20-containing PBS and assayed for LDH activity. The results were expressed as % of control, whose LDH activity was set to 100.

Row | Compound | inhibition of cell death induced by addition of 1 mM glutamic acid
4 | COc1ccc(C(=O)N2c3ccccc3C(N3CCCc4ccccc43)CC2C)cc1OC (single isomer, unassigned; (-)) [Example 5, (−)-2,4-cis-1-(3,4-Dimethoxybenzoyl)-2-methyl-4-(1,2,3,4-tetrahydroquinolin-1-yl)-1,2,3,4-tetrahydroquinoline] | completely inhibited

Tested on: not given
Experiment: not given
Details: not given

Row | Compound | melting point [°C]
5 | CCOc1ccc(C(=O)N2c3ccccc3C(N3CCCc4ccccc43)CC2C)cc1OCC (centres unmarked) [Example 102, 1-(3,4-Diethoxybenzoyl)-2-methyl-4-(1,2,3,4-tetrahydroquinolin-1-yl)-1,2,3,4-tetrahydroquinoline] | 157 to 158
6 | COc1ccc(C(=O)N2c3ccccc3C(n3c4ccccc4c4ccccc43)CC2CCCc2ccccc2)cc1OC (stereo not drawn) [Example 116, 9-[2,4-cis-1-(3,4-Dimethoxybenzoyl)-2-(3phenylpropyl)-1,2,3,4-tetrahydroquinolin-4-yl]-9H-carbazole] | 225 to 226
7 | COc1ccc(C(=O)N2c3ccccc3C(n3c4ccccc4c4ccccc43)CC2CCCO)cc1OC (stereo not drawn) [Example 118, 3-[2,4-cis-4-(9H-9-Carbazolyl)-1-(3,4-dimethoxybenzoyl)-1,2,3,4-tetrahydroquinolin-2-yl]-1-propanol] | 192 to 194
8 | CCCC(=O)NCCCC1CC(n2c3ccccc3c3ccccc32)c2ccccc2N1C(=O)c1ccc(OC)c(OC)c1 (stereo not drawn) [Example 122, N-[3-[2,4-cis-4-(9H-9-Carbazolyl)-1-(3,4-dimethoxybenzoyl)-1,2,3,4-tetrahydroquinolin-2-yl]propyl]butanamide] | 199 to 201
9 | COc1ccc(C(=O)N2c3ccccc3C(n3c4ccccc4c4ccccc43)CC2CCCNC(=O)c2ccccc2)cc1OC (stereo not drawn) [Example 124, N-[3-[2,4-cis-4-(9H-9-Carbazolyl)-1-(3,4-dimethoxybenzoyl)-1,2,3,4-tetrahydroquinolin-2-yl]propyl]-benzamide] | 236 to 237
10 | CCCC1CC(n2c3ccccc3c3ccccc32)c2ccccc2N1C(=O)c1ccc(OCC)c(OC)c1 (stereo not drawn) [Example 146, 2,4-cis-4-(9H-9-Carbazolyl)-1-(4-ethoxy-3-methoxybenzoyl)-2-propyl-1,2,3,4-tetrahydroquinoline] | 221 to 222

Second part, the molecule after the results:

Row | melting point [°C] | Compound
11 | 231 to 232 | CCCCC1CC(n2c3ccccc3c3ccccc32)c2ccccc2N1C(=O)c1ccc(OCC)c(OC)c1 (stereo not drawn) [Example 148, 2,4-cis-9-[2-Butyl-1-(4-ethoxy-3-methoxybenzoyl)-1,2,3,4-tetrahydro-4-quinolinyl]-9H-carbazole]
12 | 232 to 233 | CCCCC1CC(n2c3ccccc3c3ccccc32)c2ccccc2N1C(=O)c1ccc(OCC)c(OCC)c1 (stereo not drawn) [Example 149, 2,4-cis-9-[2-Butyl-1-(3,4-diethoxybenzoyl)-1,2,3,4-tetrahydro-4-quinolinyl]-9H-carbazole]
13 | 210 to 211 | CCC1CC(n2c3ccccc3c3ccccc32)c2ccccc2N1C(=O)c1ccc(SC)c(OC)c1 (stereo not drawn) [Example 150, 2,4-cis-9-[2-Ethyl-1-(3-methoxy-4-methylthiobenzoyl)-1,2,3,4-tetrahydro-4-quinolinyl]-9H-carbazole]
14 | 230 to 231 | CCCCC1CC(n2c3ccccc3c3ccccc32)c2ccccc2N1C(=O)c1ccc(SC)c(OC)c1 (stereo not drawn) [Example 151, 2,4-cis-9-[2-Butyl-1-(3-methoxy-4-methylthiobenzoyl)-1,2,3,4-tetrahydro-4-quinolinyl]-9H-carbazole]
15 | 167 to 168 | CCOC(=O)CCCCC1CC(n2c3ccccc3c3ccccc32)c2ccccc2N1C(=O)c1ccc(OC)cc1 (centres unmarked) [Example 157, Ethyl 5-[4-(9H-9-carbazolyl)-1-(4-methoxybenzoyl)-1,2,3,4-tetrahydro-2-quinolinyl]pentanoate]
16 | 162 to 163 | COc1ccc(C(=O)N2c3ccccc3C(N3CCCc4c(Cl)cccc43)=CC2C)cc1OC (centres unmarked) [Example 160, 4-(5-Chloro-1,2,3,4-tetrahydroquinolin-1-yl)-1-(3,4-dimethoxybenzoyl)-2-methyl-1,2-dihydroquinoline]
17 | 184 to 185 | COc1ccc(C(=O)N2c3ccccc3C(n3c4ccccc4c4ccccc43)=CC2C)cc1OC (centres unmarked) [Example 161, 4-(9H-9-Carbazolyl)-1-(3,4-dimethoxybenzoyl)-2-methyl-1,2-dihydroquinoline]
